The results in this text go back to US5646316A, “Bile acid inhibitors of metalloproteinase enzymes” (OsteoArthritis Sciences, Inc., priority 1995, dated 1997).

Experiment [1] relates to bovine cartilage explants. Briefly: Bovine Cartilage Explant Assay (35S-GAG release, rhIL-1α stimulated; tissue culture). The experiment is classed as cell-based. Particulars: Bos taurus, read-out: percent inhibition of extracellular matrix damage, Tissue Culture. An excerpt: A tissue culture assay was used to measure the ability of the compounds of the present invention to slow the degradation of the extracellular matrix by metalloproteinases. This assay measured the amount of ^35 S-glycosaminoglycan (^35 S-GAG) released from labeled bovine cartilage explants.
Knee joints from a 1 to 3 week old calf were obtained immediately after sacrifice from the Abattoir and then transported on ice. The intact joints were washed well with tap water and soaked in 50% (v/v) Povidine iodine solution, obtained from Burre National, Inc., Baltimore, Md. All subsequent steps were performed in a laminar flow tissue culture hood using standard sterile technique. The joint was immobilized in a shank holder and the joint capsule was cut open to expose the articular cartilage. Cartilage explant plugs, approximately 15 mg wet weight, were removed from the flat articulating surfaces in the lower-most region of the knee joint using a sterile steel cork-borer and collected in a 250 mL roller bottle containing about 100 mL fresh Delbecco's minimum essential medium (DMEM), obtained from Gibco BRC, Life Technologies, Gaithersburg, Md., containing 4.5 g/1 (D)-glucose and (L)-glutamine, without sodium pyruvate. The fresh media also contained enough Hepes buffer and sodium bicarbonate such that the pH was about 7.4. The media was then further supplemented just before use with 100 units Penicillin, 100 μg Streptomycin, and 50 μg (L)-ascorbic acid per mL of medium.
Once collected, the explant plugs were washed four times with 50 mL fresh DMEM. The plugs were then placed in the incubator for a minimum of 1 hour to equilibrate, before proceeding to make disks from the articulating surface of each plug. A 1 mm thick disk was sliced from individual plugs from the end that was the articulating surface of the joint. The plug was held steady in the sterile template (4 mm diameter×1.5 mm deep) using sterile forceps. A scalpel blade was used to carefully slice off the disk. Only the superficial articulating surface responded well in culture.
Individual disks obtained were transferred to a tissue culture flask containing about 100 mL fresh media. The flask containing the disks was placed in an incubator at 37° C. (with 5% CO2, 95% air) and allowed to equilibrate overnight and at least one additional day before labeling. When ready to label, the old media was replaced with 50 mL fresh media containing about 500 μCi ^35 S-Sodium Sulfate. The plugs were labeled in bulk for about 48 hours. The next morning, the "hot" media was removed and replaced with fresh "cold" media. The disks were again allowed to equilibrate overnight before being used for actual experiments.
The media in which the disks were stored was changed immediately prior to performing the assay. The disks were then returned to the incubator until the test media and the two control media had been prepared. The test media consisted of a bile acid or bile acid derivative (50 μM) being tested for its ability to inhibit extracellular matrix degradation and concomitant recombinant human Interleukin rhIL-1α (5 ng/mL) in fresh DMEM solution. The control media were identical to the test media, except that the first control media lacked rhIL-1α and the second control media lacked an inhibitor, i.e. a bile acid or bile acid derivative. 250 μL of each of the test and control media were transferred to separate 96-well TC plates. Flamed forceps were used to transfer a disk from the incubator to each 96-well TC plates that had been filled with either the test media or one of the two control media.
The TC plates were then placed in the incubator and cultured for 3-4 days (initial incubation with rhIL-1α alpha takes at least 3 days to stimulate endogenous metalloproteinases). A 50 μL aliquot of media from each TC plate was saved and counted. The rest of the media was removed with a suction device.
The cartilage disks from each TC plate were also saved for counting. […]

A further experiment has as its system chondrocytes. Description: Chondrocyte Cell Culture Matrix Breakdown Assay (35S release, rhIL-1α stimulated). It counts as cell-based, calf. Particulars: Bos taurus, Chondrocyte; for inhibition at 50 µM: read-out: percent inhibition, Cell Culture. The method, then:
A cell culture assay was used to measure the ability of compounds to slow the degradation of the extracellular matrix by a metalloproteinase. This assay measured the amount ^35 S released from chondrocytes grown in a media with ^35 S labeled sodium sulfate. The cell culture assay was carried out as follows:
Two or three 1 to 3 week old calf joints were obtained from an abattoir. The proximal end of the shank was at about 4-5" long to facilitate immobilization in the holder. The joint was kept cool and transported on ice. The exterior of the intact joints was washed well with a suitable anti-microbial soap, rinsed clean with warm water, rinsed in betadine and then finally rinsed with 70% ethanol. Up to this point all steps were done in a manner to ensure that the joint was kept as clean as possible. All subsequent steps were performed in a sterile field (i.e., in a Edgeguard laminar flow tissue culture hood). The joint was immobilized and the synovial fluid was aspirated with a needle and syringe. The joint was then cut open to expose the articular cartilage using a #21 scalpel. Using locking hemostats, forceps and a #15 scalpel, the cartilage was excised in full thickness pieces. Care was taken not to cut too deep because bleeding would have occurred if the subchondral bone, was penetrated. The cartilage pieces were placed into a 50 mL centrifuge tube containing 25 mL of Delbecco's phosphate buffered saline (D-PBS) supplemented with 1% antibiotic solution (penicillin, streptomycin and fungizone; GIBCO/BRL). The slices from each joint were then placed into separate 50 mL centrifuge tubes. The D-PBS was decanted and replaced with 25 mL of fresh D-PBS supplemented with antibiotics and subsequently agitated gently.
The cartilage pieces were transferred to a fresh 50 mL centrifuge tube and rinsed once more with 25 mL of D-PBS minus antibiotics. An enzymatic digestion solution containing 1 mg/mL of hyaluronidase in serum-free 1:1 DMEM/Ham's F-12 (DMEM/F12) was prepared. This solution was filter sterilized with […] Milex--GV filter and kept on ice until ready to use. The cartilage pieces were digested with approximately 5 mL of hyaluronidase solution per joint for 2×15 minutes at 37° C. in the 50 mL centrifuge tube with gentle agitation at the 15 minute mark. This procedure removed residual hyaluronic acid from the surface of the chips. The enzymatic digestion solution was then aspirated and the cartilage pieces were rinsed with 25 mL of D-PBS.
A second enzymatic digestion solution containing 2.5 mg trypsin and 2 mg collagenase P per mL serum-free DMEM/F12 was prepared. This solution was also filter sterilized with a […] Millex--GV filter and kept on ice until ready to use. The cartilage pieces were digested with approximately 5 mL of trypsin: collagenase solution per joint for 2×15 minutes at 37° C. in the 50 mL centrifuge tube with gentle agitation at the 15 minute mark. This procedure removed the synovial fibroblasts and any adherent connective tissue from the surface of the chips. The enzymatic digestion solution was then carefully removed and saved and the cartilage pieces were rinsed with 25 mL of D-PBS.
A third enzymatic solution containing 2 mgs of collagenase P (BMB) per mL serum-free DMEM/F12 was prepared. This solution was filter sterilized with a […] Millex--GV filter and kept on ice until ready to use. The pre-digested cartilage pieces were finally digested with approximately 20 mL of enzymatic digestion solution per joint for 5-6 hours at 37° C. in a Bellco stirring digestion flask, at which point the cartilage was fully digested away.
The enzymes in the synovial fibroblast and chondrocyte digest were neutralized by addition of an equal volume of DMEM/F12 supplemented with 5% fetal bovine serum. Fibroblasts were plated in DMEM at a cellular density of 6.6×10^3 cells per cm^2. […]

The mark [2] stands for this setting: at 50 μM, rhIL-1α 5 ng/mL, 3-4 days.
[3] abbreviates: at 50 μM, rhIL-1α 1 ng/ml, 22-24 hours.

Usually inhibition stands for the drop in the measured response relative to a control, in per cent. Usually IC50 stands for the concentration that inhibits the measured activity by half. Lower therefore signals greater potency in that assay.

Like-named read-outs stand apart in the source and are kept apart here.

For the compound `C[C@H](CCC(=O)O)[C@H]1CC[C@H]2[C@@H]3CC[C@@H]4C[C@H](O)CC[C@]4(C)[C@H]3CC[C@]12C` [Compound 1, Lithocholic acid, reference compound], the inhibition at 50 µM in experiment [1] (setting [2]) was 68%; in the experiment on chondrocytes (setting [3]), 95%.
As for `C[C@H](CCC(=O)NCCC[N+](C)(C)CCCS(=O)(=O)[O-])[C@H]1CC[C@H]2[C@@H]3[C@H](O)C[C@@H]4C[C@H](O)CC[C@]4(C)[C@H]3C[C@H](O)[C@]12C` [Compound 8, 3-[(3-cholamidopropyl)dimethylammonio)-1-propanesulfonate, reference compound], the inhibition at 50 µM in experiment [1] was -120%; with chondrocytes it was 2%.
In the case of `CC(C)C[C@H](NC(=O)CC[C@@H](C)[C@H]1CC[C@H]2[C@@H]3CC[C@@H]4C[C@H](O)CC[C@]4(C)[C@H]3CC[C@]12C)C(=O)NO` [Compound 9, Lithocholyl-(L)-Leucine Hydroxamic Acid], the inhibition at 50 µM in experiment [1] (setting [2]) turned out to be 84%; in the experiment with chondrocytes (setting [3]), 43%.
For the compound `CC(C)C[C@H](NC(=O)CC[C@@H](C)[C@H]1CC[C@H]2[C@@H]3[C@H](O)C[C@@H]4C[C@H](O)CC[C@]4(C)[C@H]3CC[C@]12C)C(=O)NO` [Compound 10, Chenodeoxycholyl-(L)-Leucine Hydroxamic Acid], the inhibition at 50 µM in experiment [1] (setting [2]) came out at 85%. In addition, the IC50 with chondrocytes (rhIL-1α 1 ng/ml, 22-24 hours) came to 80 µM.
As to `C[C@H](CCC(=O)NOCc1ccccc1)[C@H]1CC[C@H]2[C@@H]3[C@H](O)C[C@@H]4C[C@H](O)CC[C@]4(C)[C@H]3CC[C@]12C` [Compound 12, Chenodeoxycholyl-O-Benzylhyroxamate], the values for the inhibition at 50 µM (in experiment [1] (setting [2]); in the experiment with chondrocytes (setting [3])) were 6% and 64%, respectively.
For the compound `C[C@H](CCC(=O)NO)[C@H]1CC[C@H]2[C@@H]3CC[C@@H]4C[C@H](O)CC[C@]4(C)[C@H]3CC[C@]12C` [Compound 13, Lithocholylhydroxamic Acid], the inhibition at 50 µM in experiment [1] (setting [2]) is 44%. This compound also yielded an IC50 in the experiment on chondrocytes (rhIL-1α 1 ng/ml, 22-24 hours) of 20 µM.
For the compound `C[C@H](CCC(=O)N[C@@H](Cc1ccccc1)C(=O)NO)[C@H]1CC[C@H]2[C@@H]3CC[C@@H]4C[C@H](O)CC[C@]4(C)[C@H]3CC[C@]12C` [Compound 15, Lithocholyl-(L)-Phenylalanine Hydroxamic Acid], the inhibition at 50 µM in experiment [1] (setting [2]) came out at 54%; in the experiment on chondrocytes (setting [3]) it was 38%.
The like results for `C[C@H](CCC(=O)N[C@@H](Cc1ccccc1)C(=O)NO)[C@H]1CC[C@H]2[C@@H]3[C@H](O)C[C@@H]4C[C@H](O)CC[C@]4(C)[C@H]3CC[C@]12C` [Compound 16, Chenodeoxycholyl-(L)-Phenylalanine Hydroxamic Acid] were, in that order, 94% and 85%.
The like results for `CCOC(=O)[C@H](CS)NC(=O)[C@H](Cc1ccccc1)NC(=O)CC[C@@H](C)[C@H]1CC[C@H]2[C@@H]3CC[C@@H]4C[C@H](O)CC[C@]4(C)[C@H]3CC[C@]12C` [Compound 19, Lithocholyl-(L)-Phenylalanyl-(L)-Cysteine Ethyl Ester] were, in that order, 32% and 4%.
For `C[C@H](CCC(=O)N[C@@H](Cc1ccccc1)C(=O)NC1CCSC1=O)[C@H]1CC[C@H]2[C@@H]3CC[C@@H]4C[C@H](O)CC[C@]4(C)[C@H]3CC[C@]12C` (some centres unmarked) [Compound 20, Lithocholyl-Phenylalanylhomocysteine Thiolactone], the inhibition at 50 µM in experiment [1] (setting [2]) is -13%; with chondrocytes (setting [3]), 16%.
